From patent US12473294B2, “Selective modulators of mutant LRRK2 proteolysis and associated methods of use” (Arvinas Operations, Inc., priority 2020, dated 2025) come the findings set out here.

The target in one assay is T1, G2019S LRRK2 (Homo sapiens, UniProt Q5S007, G2019S).
T1 construct: expressed in transfected cells; host or cells: HEK293 (ATCC CRL-1573)
As to the kind of experiment: LRRK2 degradation HiBit assay, G2019S LRRK2 tagged with a HiBit tag expressed in HEK293 cells. Format: cell-based. The following applies: 24 hours compound incubation; for Dmax: HEK293, HEK293 cells; for DC50: HEK293 cells. An outline of the steps:
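HEK293 cells were transiently transfected with G2019S LRRK2 carrying a C-terminal HiBit tag (ubiquitin promoter) plus firefly luciferase, then exposed to compound for 24 h at 37 °C. Dual luminescence gave the HiBit/luciferase ratio ×1000, normalised to DMSO. DC50 and Dmax were fitted per plate.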
(In general: The HiBiT peptide binds its large partner to form an active luciferase.)

In the next assay the target is T2, wildtype LRRK2 (Homo sapiens, UniProt Q5S007).
T2 construct: endogenous in cells; host or cells: HEK293 with HiBit knocked in at the 3' end of the endogenous LRRK2 gene, stably expressing firefly luciferase
T2 sequence (Q5S007 whole entry): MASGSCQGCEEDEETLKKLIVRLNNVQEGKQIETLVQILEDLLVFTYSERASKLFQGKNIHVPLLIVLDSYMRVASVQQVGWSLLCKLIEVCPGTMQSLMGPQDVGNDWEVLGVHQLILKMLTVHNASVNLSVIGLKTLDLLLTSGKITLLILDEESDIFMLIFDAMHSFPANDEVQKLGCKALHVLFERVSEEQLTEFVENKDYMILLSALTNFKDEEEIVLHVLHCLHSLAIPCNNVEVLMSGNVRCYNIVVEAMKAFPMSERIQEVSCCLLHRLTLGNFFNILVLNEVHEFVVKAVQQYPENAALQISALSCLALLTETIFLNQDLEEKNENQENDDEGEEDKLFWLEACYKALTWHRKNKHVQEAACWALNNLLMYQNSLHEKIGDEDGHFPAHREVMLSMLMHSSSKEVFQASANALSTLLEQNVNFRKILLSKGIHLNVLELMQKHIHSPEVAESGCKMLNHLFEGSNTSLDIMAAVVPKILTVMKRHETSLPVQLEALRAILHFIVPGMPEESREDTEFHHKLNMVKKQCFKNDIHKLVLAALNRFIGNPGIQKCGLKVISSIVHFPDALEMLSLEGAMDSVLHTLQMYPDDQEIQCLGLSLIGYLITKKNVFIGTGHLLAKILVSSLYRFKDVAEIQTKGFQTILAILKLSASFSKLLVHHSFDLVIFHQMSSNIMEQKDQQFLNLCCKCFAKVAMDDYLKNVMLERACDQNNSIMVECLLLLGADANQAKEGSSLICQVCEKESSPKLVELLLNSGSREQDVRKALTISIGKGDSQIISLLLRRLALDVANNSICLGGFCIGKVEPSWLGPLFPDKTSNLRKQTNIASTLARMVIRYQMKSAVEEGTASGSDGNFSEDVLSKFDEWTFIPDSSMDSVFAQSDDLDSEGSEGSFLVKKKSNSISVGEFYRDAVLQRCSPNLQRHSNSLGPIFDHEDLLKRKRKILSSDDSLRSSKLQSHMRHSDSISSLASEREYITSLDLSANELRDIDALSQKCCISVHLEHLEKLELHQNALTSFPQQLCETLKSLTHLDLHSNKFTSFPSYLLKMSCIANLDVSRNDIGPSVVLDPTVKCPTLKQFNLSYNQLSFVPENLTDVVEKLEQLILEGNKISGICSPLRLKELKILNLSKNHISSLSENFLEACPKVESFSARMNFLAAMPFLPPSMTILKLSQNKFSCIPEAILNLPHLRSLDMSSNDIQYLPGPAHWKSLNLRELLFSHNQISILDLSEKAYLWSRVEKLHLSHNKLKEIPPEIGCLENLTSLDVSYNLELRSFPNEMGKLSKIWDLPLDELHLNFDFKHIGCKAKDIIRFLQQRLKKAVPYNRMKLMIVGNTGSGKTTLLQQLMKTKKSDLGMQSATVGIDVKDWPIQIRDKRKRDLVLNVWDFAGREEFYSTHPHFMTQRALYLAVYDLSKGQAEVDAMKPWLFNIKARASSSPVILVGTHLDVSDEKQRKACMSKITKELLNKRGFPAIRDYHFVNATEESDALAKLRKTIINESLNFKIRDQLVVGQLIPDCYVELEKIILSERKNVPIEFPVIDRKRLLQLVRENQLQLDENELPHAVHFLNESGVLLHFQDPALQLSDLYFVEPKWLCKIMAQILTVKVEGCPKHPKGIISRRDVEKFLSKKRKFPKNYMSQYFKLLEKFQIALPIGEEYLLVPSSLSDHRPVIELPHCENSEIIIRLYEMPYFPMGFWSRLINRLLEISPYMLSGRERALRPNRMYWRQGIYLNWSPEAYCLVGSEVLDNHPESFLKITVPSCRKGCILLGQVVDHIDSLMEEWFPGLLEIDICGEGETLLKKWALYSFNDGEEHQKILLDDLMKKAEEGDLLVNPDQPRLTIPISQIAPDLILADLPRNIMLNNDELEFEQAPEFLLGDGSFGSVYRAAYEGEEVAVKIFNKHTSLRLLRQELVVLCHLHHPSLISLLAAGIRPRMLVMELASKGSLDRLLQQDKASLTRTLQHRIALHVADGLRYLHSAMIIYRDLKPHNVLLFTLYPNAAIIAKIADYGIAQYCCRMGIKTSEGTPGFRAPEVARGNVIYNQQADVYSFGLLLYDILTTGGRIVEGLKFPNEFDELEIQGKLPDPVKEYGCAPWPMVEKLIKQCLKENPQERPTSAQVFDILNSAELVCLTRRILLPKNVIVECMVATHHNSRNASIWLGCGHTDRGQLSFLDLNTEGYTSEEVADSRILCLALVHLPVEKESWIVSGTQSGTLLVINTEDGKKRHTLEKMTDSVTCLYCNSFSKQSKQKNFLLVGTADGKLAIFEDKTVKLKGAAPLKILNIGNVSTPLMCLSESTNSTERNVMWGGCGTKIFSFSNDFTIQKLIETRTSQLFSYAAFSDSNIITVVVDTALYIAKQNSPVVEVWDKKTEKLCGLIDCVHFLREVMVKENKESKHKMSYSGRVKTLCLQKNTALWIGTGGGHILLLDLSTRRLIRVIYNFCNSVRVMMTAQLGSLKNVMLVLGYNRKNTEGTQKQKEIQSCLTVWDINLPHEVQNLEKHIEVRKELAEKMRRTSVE
As to the kind of experiment: LRRK2 degradation HiBit assay, wildtype LRRK2 tagged with a HiBit tag in HEK293 cells. The format is cell-based. The following applies: 24 hours compound incubation; for DC50: read-out: *WT DC50; for Dmax: read-out: ** WT Dmax (%). An outline of the steps:
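HEK293 cells transiently co-transfected with ubiquitin-promoter-driven C-terminally HiBit-tagged wildtype LRRK2 plus firefly luciferase, then treated with compound for 24 h at 37° C. HiBit/luciferase ratio ×1000 normalized to DMSO median; DC50 and Dmax fitted per plate, six replicates across two days.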

Each structure is given as a SMILES string. Some results are limits rather than exact numbers.

T1 sequence (Q5S007 whole entry G2019S): as the sequence (Q5S007 whole entry) above, with G2019S counted along it

For orientation: Dmax means the greatest extent of degradation seen. As usually defined, the DC50 is the midpoint of the concentration-degradation curve. Regarding `CC1=C(C(=O)Nc2ccc3[nH]nc(-c4ccnc(N5CCN(CCN6CCN(CC7CCN(c8ccc9c(c8)C(=O)N(C8CCC(=O)NC8=O)C9=O)CC7)CC6)[C@@H](C)C5)c4)c3c2)[C@H](C)n2nnnc2N1C` (stereo partly drawn) [compound 28, (7S)-N-(3-{2-[(3S)-4-{2-[4-({1-[2-(2,6-dioxopiperidin-3-yl)-1,3-dioxo-2,3-dihydro-1H-isoindol-5-yl]piperidin-4-yl}methyl)piperazin-1-yl]ethyl}-3-methylpiperazin-1-yl]pyridin-4-yl}-1H-indazol-5-yl)-4,5,7-trimethyl-4H,7H-[1,2,3,4]tetrazolo[1,5-a]pyrimidine-6-carboxamide], on G2019S LRRK2, the Dmax lay in the range of 50 to 70%. In addition, the half-maximal degradation concentration (DC50) at G2019S LRRK2 and on wildtype LRRK2 was not below 100 nM in each case.

For `CC1=C(C(=O)Nc2ccc3[nH]nc(-c4ccnc(N5CCN(CC6CCN(CC7CCN(c8ccc9c(c8)C(=O)N(C8CCC(=O)NC8=O)C9=O)CC7)CC6)CC5)c4)c3c2)C(C)(C)n2nnnc2N1C` (stereo not drawn) [compound 29, N-{3-[2-(4-{[1-({1-[2-(2,6-dioxopiperidin-3-yl)-1,3-dioxo-2,3-dihydro-1H-isoindol-5-yl]piperidin-4-yl}methyl)piperidin-4-yl]methyl}piperazin-1-yl)pyridin-4-yl]-1H-indazol-5-yl}-4,5,7,7-tetramethyl-4H,7H-[1,2,3,4]tetrazolo[1,5-a]pyrimidine-6-carboxamide], on G2019S LRRK2, the Dmax was less than 50% and the DC50 lay in the range of 10 to 50 nM. Moreover, on wildtype LRRK2, the greatest degradation seen (Dmax) was less than 50% and the DC50 is not below 100 nM.

As for `CC1=C(C(=O)Nc2ccc3[nH]nc(-c4ccnc(N5CCN(CCN6CCN(CC7CCN(c8ccc9c(c8)C(=O)N(C8CCC(=O)NC8=O)C9=O)CC7)CC6)[C@@H](C)C5)c4)c3c2)C(C)(C)n2nnnc2N1C` (stereo partly drawn) [compound 30, N-(3-{2-[(3S)-4-{2-[4-({1-[2-(2,6-dioxopiperidin-3-yl)-1,3-dioxo-2,3-dihydro-1H-isoindol-5-yl]piperidin-4-yl}methyl)piperazin-1-yl]ethyl}-3-methylpiperazin-1-yl]pyridin-4-yl}-1H-indazol-5-yl)-4,5,7,7-tetramethyl-4H,7H-[1,2,3,4]tetrazolo[1,5-a]pyrimidine-6-carboxamide], at G2019S LRRK2, the greatest degradation seen (Dmax) was less than 50% and the 50% degradation concentration (DC50) was 10 to 50 nM. On wildtype LRRK2, the greatest degradation seen (Dmax) is less than 50% and the DC50 was not below 100 nM.

Turning to `CC1=C(C(=O)Nc2ccc3[nH]nc(-c4ccnc(N5CCN(CCN6CCC(CN7CCN(c8ccc9c(c8)C(=O)N(C8CCC(=O)NC8=O)C9=O)CC7)CC6)[C@@H](C)C5)c4)c3c2)[C@H](C)n2nnnc2N1C` (stereo partly drawn) [compound 31, (7S)-N-(3-{2-[(3S)-4-{2-[4-({4-[2-(2,6-dioxopiperidin-3-yl)-1,3-dioxo-2,3-dihydro-1H-isoindol-5-yl]piperazin-1-yl}methyl)piperidin-1-yl]ethyl}-3-methylpiperazin-1-yl]pyridin-4-yl}-1H-indazol-5-yl)-4,5,7-trimethyl-4H,7H-[1,2,3,4]tetrazolo[1,5-a]pyrimidine-6-carboxamide], at G2019S LRRK2, the Dmax is less than 50% and the half-maximal degradation concentration (DC50) was not below 100 nM. The DC50 on wildtype LRRK2 is not below 100 nM.

As for `CC1=C(C(=O)Nc2ccc3[nH]nc(-c4ccnc(N5CCO[C@@H](CN6CCN(CC7CCN(c8ccc9c(c8)C(=O)N(C8CCC(=O)NC8=O)C9=O)CC7)CC6)C5)c4)c3c2)C(C)(C)n2nnnc2N1C` (stereo partly drawn) [compound 32, N-(3-{2-[(2S)-2-{[4-({1-[2-(2,6-dioxopiperidin-3-yl)-1,3-dioxo-2,3-dihydro-1H-isoindol-5-yl]piperidin-4-yl}methyl)piperazin-1-yl]methyl}morpholin-4-yl]pyridin-4-yl}-1H-indazol-5-yl)-4,5,7,7-tetramethyl-4H,7H-[1,2,3,4]tetrazolo[1,5-a]pyrimidine-6-carboxamide], at G2019S LRRK2, the Dmax is less than 50% and the 50% degradation concentration (DC50) lay in the range of 10 to 50 nM. The DC50 at wildtype LRRK2 is not below 100 nM.

For `CC1=C(C(=O)Nc2ccc3[nH]nc(-c4ccnc(N5CCN(CCN6CCC(CN7CCN(c8ccc9c(c8)C(=O)N(C8CCC(=O)NC8=O)C9=O)CC7)CC6)CC5)c4)c3c2)C(C)(C)n2nnnc2N1C` (stereo not drawn) [compound 33, N-{3-[2-(4-{2-[4-({4-[2-(2,6-dioxopiperidin-3-yl)-1,3-dioxo-2,3-dihydro-1H-isoindol-5-yl]piperazin-1-yl}methyl)piperidin-1-yl]ethyl}piperazin-1-yl)pyridin-4-yl]-1H-indazol-5-yl}-4,5,7,7-tetramethyl-4H,7H-[1,2,3,4]tetrazolo[1,5-a]pyrimidine-6-carboxamide], the greatest degradation seen (Dmax) at G2019S LRRK2 and at wildtype LRRK2 was less than 50% each time. For the same compound, the DC50 at G2019S LRRK2 and on wildtype LRRK2 was not below 100 nM in each case.

Regarding `CC1=C(C(=O)Nc2ccc3[nH]nc(-c4ccnc(N5CCN(CC6CCN(CC7CCN(c8ccc9c(c8)C(=O)N(C8CCC(=O)NC8=O)C9=O)CC7)CC6)[C@@H](C)C5)c4)c3c2)C(C)(C)n2nnnc2N1C` (stereo partly drawn) [compound 34, N-(3-{2-[(3S)-4-{[1-({1-[2-(2,6-dioxopiperidin-3-yl)-1,3-dioxo-2,3-dihydro-1H-isoindol-5-yl]piperidin-4-yl}methyl)piperidin-4-yl]methyl}-3-methylpiperazin-1-yl]pyridin-4-yl}-1H-indazol-5-yl)-4,5,7,7-tetramethyl-4H,7H-[1,2,3,4]tetrazolo[1,5-a]pyrimidine-6-carboxamide], the Dmax on G2019S LRRK2 is less than 50%. Moreover, the DC50 on G2019S LRRK2 was 10 to 50 nM; at wildtype LRRK2 it was not below 100 nM.

Consider `CC1=C(C(=O)Nc2ccc3[nH]nc(-c4ccnc(N5CCN(CCN6CCN(CC7CCN(c8ccc9c(c8)C(=O)N(C8CCC(=O)NC8=O)C9=O)CC7)CC6)CC5)c4)c3c2)C(C)(C)n2nnnc2N1C` (stereo not drawn) [compound 35, N-{3-[2-(4-{2-[4-({1-[2-(2,6-dioxopiperidin-3-yl)-1,3-dioxo-2,3-dihydro-1H-isoindol-5-yl]piperidin-4-yl}methyl)piperazin-1-yl]ethyl}piperazin-1-yl)pyridin-4-yl]-1H-indazol-5-yl}-4,5,7,7-tetramethyl-4H,7H-[1,2,3,4]tetrazolo[1,5-a]pyrimidine-6-carboxamide], for which, on G2019S LRRK2, the Dmax is less than 50%. Further, the DC50 was 10 to 50 nM on G2019S LRRK2 and not below 100 nM on wildtype LRRK2.

On G2019S LRRK2, `CC1=C(C(=O)Nc2ccc3[nH]nc(-c4ccnc(N5CCN(CCN6CCC(CN7CCN(c8ccc9c(c8)C(=O)N(C8CCC(=O)NC8=O)C9=O)CC7)CC6)[C@@H](C)C5)c4)c3c2)C(C)(C)n2nnnc2N1C` (stereo partly drawn) [compound 36, N-(3-{2-[(3S)-4-{2-[4-({4-[2-(2,6-dioxopiperidin-3-yl)-1,3-dioxo-2,3-dihydro-1H-isoindol-5-yl]piperazin-1-yl}methyl)piperidin-1-yl]ethyl}-3-methylpiperazin-1-yl]pyridin-4-yl}-1H-indazol-5-yl)-4,5,7,7-tetramethyl-4H,7H-[1,2,3,4]tetrazolo[1,5-a]pyrimidine-6-carboxamide] came in with a Dmax of less than 50% and a DC50 not below 100 nM. The 50% degradation concentration (DC50) on wildtype LRRK2 is not below 100 nM.
